What was measured:
[1] = Long-term/accelerated stability test of crystalline salt forms in sealed aluminum foil bags; assay type: physicochemical; conditions: for Crystalline form: after storage
Procedure: The crystalline form α of mesylate, the crystalline form α of sulfate, the crystalline form I of maleate, the crystalline form a of p-toluenesulfonate and the crystalline form a of oxalate were stored in sealed aluminum foil bags and subjected to stability test under the conditions of −20° C., 4° C., 25° C./60% RH and 40° C./75% RH.

LoVo cells = assay: Cell proliferation assay (intracellular ATP content, CellTiter-Glo); assay type: cell-based, human; conditions: 3 days
Source text: The following method evaluates the inhibitory effect of the compounds disclosed herein on the proliferation of LoVo cells via IC50 by measuring the intracellular ATP content. The experimental method was briefly described as follows:
• 1. LoVo, human colon cancer cells (Cobioer, Nanjing, CBP60032) • 2. Fetal bovine serum (GIBCO, 10091-148) • 3. F-12K Medium (Gibco, 21127030) • 4. CellTite-Glo reagent (Promega, G7573) • 5. 96-well cell culture plate (Corning, 3903) • 6. Pancreatin (Invitrogen, 25200-072) • 7. Microplate reader (BMG, PHERAsta) • 8. Cell counter (Countstar, Shanghai, IC1000)
LoVo cells were cultured in an F-12K culture medium containing 10% of FBS, and passaged twice or thrice a week in a passage ratio of 1:3 or 1:5. During passage, cells were digested by pancreatin, transferred to a centrifuge tube, and centrifuged for 3 min at 1200 rpm. The supernatant was discarded, and fresh culture medium was added to resuspend the cells. To a 96-well cell culture plate, 90 μL of the cell suspension was added at a density of 3.88×10^4 cells/mL. To peripheral wells of the 96-well plate, only 100 μL of complete medium was added. […]
The test samples were each diluted to 2 mM in DMSO and serially 3-fold diluted to the 10th concentration. […] The chemiluminescence signals were read by a PHERAstar system, and the data were processed by GraphPad software.

ATR enzyme = ATR enzyme (Homo sapiens (Human), UniProt Q13535); assay: Inhibitory effect on ATR enzyme (HTRF, phospho-p53); assay type: biochemical
Source text: The following method was used to determine the inhibitory effect of the compounds disclosed herein on ATR enzyme. The experimental method was briefly described as follows:
• 1. ATR enzyme (Eurofins Pharma Discovery Services, 14-953-M) • 2. GST-tag P53 protein (Eurofins Pharma Discovery Services, 14-952-M) • 3. 384-well plate (Thermo Scientific, 267462) • 4. U-shaped bottom 96-well plate (Corning, 3795) • 5. MAb Anti-phospho p53-Eu cryptate (Cisbio, 61P08KAE) • 6. MAb Anti GST-d2 (Cisbio, 61GSTDLF) • 7. ATP solution (Promega, V916B) • 8. EDTA (Thermo Scientific, AM9260G) • 9. HEPES (Gibco, 15630-080) • 10. Microplate reader (BMG, PHERAsta)
1 nM ATR enzyme, 50 nM P53 protein, 7.435 μM ATP and small molecule compounds of different concentrations (serially 3-fold diluted from 1 μM to the 11th concentration) were mixed and incubated at room temperature for 2 h. A terminating buffer (12.5 mM HEPES, 250 mM EDTA) was added. The mixture was well mixed before 0.42 ng/well of mAb anti-phospho p53-Eu cryptate and 25 ng/well of mAb anti GST-d2 were added. The mixture was incubated overnight at room temperature, and the fluorescence signals at 620 nm and 665 nm were detected using a PHERAstar system. Data were processed using GraphPad software.

[2] = Pharmacokinetic study in rats after intragastric administration; assay type: in vivo; conditions: both sexes, rat, plasma, po, SD rats, 2 mg/kg
Procedure: The drug concentrations in the plasma of the test animals (rats) at different time points after intragastric administration of the compound of Example 1 were determined by an LC/MS/MS method. The pharmacokinetic behavior in rats of the compound disclosed herein was studied and its pharmacokinetic profile was evaluated.
12 healthy adult SD rats (half male and half female; purchased from Vital River) were evenly divided into 3 groups of 4.
A certain amount of the compound was added to a mixed solvent containing 5% of DMSO, 5% of Tween 80 and 90% of normal saline to obtain a colorless and clear solution.
SD rats were intragastrically administered with the compound after fasting overnight, at a dose of 2 mg/kg and a volume of 10.0 mL/kg.
Rats were intragastrically administered with the compound of Examples 1. 0.2 mL of blood was collected from the orbit pre-dose and at 0.25, 0.5, 1.0, 2.0, 4.0, 6.0, 8.0, 11.0 and 24.0 h post-dose. The blood samples were transferred to EDTA-K2kk anticoagulation tubes, centrifuged at 4° C. and 11000 rpm for 5 min to separate out plasma. The plasma samples were stored at −20° C. The rats were fed 2 h after administration.
The plasma concentration of the compound in rats after intragastric administration was determined: 25 μL of rat plasma at each time point post-dose was mixed with 50 μL of internal standard and 175 μL of acetonitrile; the mixture was vortexed for 5 min and centrifuged for 10 min at 4000 rpm. 1 μL of supernatant was taken for LC/MS/MS analysis.

[3] = long-term/accelerated stability test, overall
[4] = Initial, printed in the 25° C./60% RH row

ATR enzyme, sequence (Q13535 whole entry): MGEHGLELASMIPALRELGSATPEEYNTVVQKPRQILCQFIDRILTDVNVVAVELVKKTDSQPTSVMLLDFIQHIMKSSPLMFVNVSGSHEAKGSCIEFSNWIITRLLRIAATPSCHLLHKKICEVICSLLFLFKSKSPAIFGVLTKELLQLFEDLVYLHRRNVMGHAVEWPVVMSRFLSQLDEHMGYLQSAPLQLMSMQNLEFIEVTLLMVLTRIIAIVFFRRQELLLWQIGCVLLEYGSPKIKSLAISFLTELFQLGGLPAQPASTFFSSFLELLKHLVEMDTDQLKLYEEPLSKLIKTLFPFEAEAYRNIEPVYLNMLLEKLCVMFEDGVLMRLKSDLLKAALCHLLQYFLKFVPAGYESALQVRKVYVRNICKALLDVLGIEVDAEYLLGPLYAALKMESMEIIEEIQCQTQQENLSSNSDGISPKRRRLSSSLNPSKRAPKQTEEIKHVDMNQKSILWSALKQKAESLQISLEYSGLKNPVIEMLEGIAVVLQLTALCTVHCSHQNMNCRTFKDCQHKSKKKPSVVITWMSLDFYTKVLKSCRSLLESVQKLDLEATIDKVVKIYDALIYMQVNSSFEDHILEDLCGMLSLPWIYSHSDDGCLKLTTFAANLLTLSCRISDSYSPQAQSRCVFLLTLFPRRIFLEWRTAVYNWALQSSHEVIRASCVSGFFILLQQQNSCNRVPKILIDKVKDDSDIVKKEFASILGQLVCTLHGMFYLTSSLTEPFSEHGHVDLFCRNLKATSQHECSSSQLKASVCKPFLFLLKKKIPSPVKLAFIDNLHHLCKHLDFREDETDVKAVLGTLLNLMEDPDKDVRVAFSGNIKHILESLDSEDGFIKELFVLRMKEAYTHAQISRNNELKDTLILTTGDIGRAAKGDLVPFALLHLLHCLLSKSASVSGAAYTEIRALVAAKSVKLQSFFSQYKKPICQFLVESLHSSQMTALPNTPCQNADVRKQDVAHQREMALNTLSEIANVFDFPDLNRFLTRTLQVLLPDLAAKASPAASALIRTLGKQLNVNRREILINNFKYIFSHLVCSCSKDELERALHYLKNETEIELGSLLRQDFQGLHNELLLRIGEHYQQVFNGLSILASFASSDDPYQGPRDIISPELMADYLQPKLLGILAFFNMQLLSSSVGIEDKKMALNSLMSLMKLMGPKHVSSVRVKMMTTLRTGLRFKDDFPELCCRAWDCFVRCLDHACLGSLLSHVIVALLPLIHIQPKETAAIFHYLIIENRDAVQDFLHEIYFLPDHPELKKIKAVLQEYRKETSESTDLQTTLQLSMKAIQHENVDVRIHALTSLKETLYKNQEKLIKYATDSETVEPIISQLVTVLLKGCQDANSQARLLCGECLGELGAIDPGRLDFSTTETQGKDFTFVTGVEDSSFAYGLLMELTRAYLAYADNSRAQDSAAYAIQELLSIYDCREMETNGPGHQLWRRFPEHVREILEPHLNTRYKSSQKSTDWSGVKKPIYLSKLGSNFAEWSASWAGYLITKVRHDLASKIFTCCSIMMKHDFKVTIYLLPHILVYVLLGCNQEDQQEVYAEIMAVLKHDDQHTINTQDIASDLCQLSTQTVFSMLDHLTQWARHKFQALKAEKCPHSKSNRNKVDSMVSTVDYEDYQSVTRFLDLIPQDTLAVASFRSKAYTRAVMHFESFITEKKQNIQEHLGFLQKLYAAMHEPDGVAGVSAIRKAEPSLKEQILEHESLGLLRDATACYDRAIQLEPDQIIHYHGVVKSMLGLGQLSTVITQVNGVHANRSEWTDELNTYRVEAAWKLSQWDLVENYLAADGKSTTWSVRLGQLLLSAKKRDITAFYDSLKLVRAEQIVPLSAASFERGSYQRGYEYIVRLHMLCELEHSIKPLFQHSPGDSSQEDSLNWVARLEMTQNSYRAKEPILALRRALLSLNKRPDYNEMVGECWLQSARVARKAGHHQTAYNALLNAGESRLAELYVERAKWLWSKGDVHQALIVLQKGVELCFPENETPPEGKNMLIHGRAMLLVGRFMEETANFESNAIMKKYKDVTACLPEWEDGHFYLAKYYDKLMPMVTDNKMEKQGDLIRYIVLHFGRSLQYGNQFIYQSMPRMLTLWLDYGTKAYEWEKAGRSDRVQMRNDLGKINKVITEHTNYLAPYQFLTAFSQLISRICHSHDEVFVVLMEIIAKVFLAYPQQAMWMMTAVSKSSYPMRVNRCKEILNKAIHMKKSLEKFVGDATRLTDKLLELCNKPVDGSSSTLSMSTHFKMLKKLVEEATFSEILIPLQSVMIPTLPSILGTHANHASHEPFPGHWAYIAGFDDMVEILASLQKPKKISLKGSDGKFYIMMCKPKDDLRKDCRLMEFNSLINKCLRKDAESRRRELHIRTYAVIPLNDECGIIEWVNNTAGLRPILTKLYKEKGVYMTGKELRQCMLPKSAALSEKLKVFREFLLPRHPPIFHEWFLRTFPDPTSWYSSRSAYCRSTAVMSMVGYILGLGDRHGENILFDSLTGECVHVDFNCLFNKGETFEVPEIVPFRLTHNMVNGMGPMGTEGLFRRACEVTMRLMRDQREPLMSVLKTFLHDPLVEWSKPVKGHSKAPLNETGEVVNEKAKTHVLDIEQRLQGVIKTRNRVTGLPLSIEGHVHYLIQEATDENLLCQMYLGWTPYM
ATR enzyme, sequence (Q8WXE1 whole entry partner): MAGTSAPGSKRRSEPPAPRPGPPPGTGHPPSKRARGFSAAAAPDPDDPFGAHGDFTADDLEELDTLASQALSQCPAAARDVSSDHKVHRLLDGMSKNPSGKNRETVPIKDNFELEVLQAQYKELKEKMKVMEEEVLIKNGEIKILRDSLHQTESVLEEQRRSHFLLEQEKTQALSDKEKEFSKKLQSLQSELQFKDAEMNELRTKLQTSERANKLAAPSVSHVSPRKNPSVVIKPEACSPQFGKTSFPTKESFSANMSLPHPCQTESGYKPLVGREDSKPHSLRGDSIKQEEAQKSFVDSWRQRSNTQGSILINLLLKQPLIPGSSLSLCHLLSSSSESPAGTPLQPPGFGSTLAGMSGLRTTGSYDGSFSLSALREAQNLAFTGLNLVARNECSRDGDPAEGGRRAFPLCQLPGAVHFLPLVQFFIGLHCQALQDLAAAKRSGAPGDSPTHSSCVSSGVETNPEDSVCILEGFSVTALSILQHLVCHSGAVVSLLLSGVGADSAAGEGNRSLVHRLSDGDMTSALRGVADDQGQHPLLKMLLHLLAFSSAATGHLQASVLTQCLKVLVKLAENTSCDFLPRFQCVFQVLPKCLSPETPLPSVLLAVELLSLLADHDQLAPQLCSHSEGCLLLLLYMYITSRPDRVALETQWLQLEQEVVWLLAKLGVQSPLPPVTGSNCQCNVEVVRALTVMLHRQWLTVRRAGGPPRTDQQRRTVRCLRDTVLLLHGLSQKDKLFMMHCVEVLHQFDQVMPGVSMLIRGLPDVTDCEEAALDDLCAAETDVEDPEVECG

Compound	Purity (%) ([1]; 4° C., 1 month)	Purity (%) ([1]; 4° C., 2 months)	Purity (%) ([1]; 4° C., 3 months)	Crystalline form ([1]; 4° C.)	Purity (%) ([1]; 25° C./60% RH, 1 month)	Purity (%) ([1]; 25° C./60% RH, 2 months)	Purity (%) ([1]; 25° C./60% RH, 3 months)	Crystalline form ([1]; 25° C./60% RH)	Purity (%) ([1]; 40° C./75% RH, 1 month)	Purity (%) ([1]; 40° C./75% RH, 2 months)	Purity (%) ([1]; 40° C./75% RH, 3 months)	Crystalline form ([1]; 40° C./75% RH)	Purity (%) ([1]; Initial)	Chemical stability (in words) [1, 3]	Purity (%) ([1]; −20° C., 1 month)	Purity (%) ([1]; −20° C., 2 months)	Purity (%) ([1]; −20° C., 3 months)	Crystalline form ([1]; −20° C.)	Purity (%) [1, 4] [%]	Chemical stability (in words) ([1]; 40° C. and 75% RH)	other results
CC1COCCN1c1cc(C(C)(C)C#N)c2c(n1)c(-c1cc[nH]n1)nn2C.Cc1ccc(S(=O)(=O)O)cc1 (stereo not shown) [Crystalline form a of p-toluenesulfonate]	98.13	98.19	98.17	Unchanged	98.41	98.07	98.18	Unchanged	97.31	96.90	95.57	Unchanged	98.69	slightly poor stability	98.46	98.46	98.66	Unchanged	–	–	–
CC1COCCN1c1cc(C(C)(C)C#N)c2c(n1)c(-c1cc[nH]n1)nn2C.CC1COCCN1c1cc(C(C)(C)C#N)c2c(n1)c(-c1cc[nH]n1)nn2C.O=C(O)C(=O)O (stereo not shown) [Crystalline form a of oxalate]	99.54	99.60	99.55	Unchanged	99.53	99.58	99.52	Unchanged	99.40	99.39	99.40	Unchanged	99.57	relatively stable	99.57	99.51	99.46	Unchanged	–	–	–
CC1COCCN1c1cc(C(C)(C)C#N)c2c(n1)c(-c1cc[nH]n1)nn2C.O=S(=O)(O)O (stereo not drawn) [Crystalline form α of sulfate]	97.07	97.29	–	Unchanged	93.00	92.90	–	Unchanged	89.37	83.97	–	Unchanged	97.55	slightly poor stability	97.62	97.56	–	Unchanged	97.70	–	–
CC1COCCN1c1cc(C(C)(C)C#N)c2c(n1)c(-c1cc[nH]n1)nn2C.O=C(O)C=CC(=O)O (stereo not shown) [Crystalline form I of maleate]	98.99	98.99	99.00	Unchanged	98.84	98.82	98.77	Unchanged	98.59	98.26	98.30	Unchanged	98.97	–	99.04	99.00	99.00	Unchanged	–	slightly degraded	–
CC1COCCN1c1cc(C(C)(C)C#N)c2c(n1)c(-c1cc[nH]n1)nn2C.CS(=O)(=O)O (stereo not drawn) [Crystalline form α of mesylate]	98.66	98.65	98.64	Unchanged	98.53	98.54	98.62	Unchanged	97.00	97.56	95.66	Unchanged	98.72	–	98.73	98.69	98.61	Unchanged	98.49	slightly degraded	–
C[C@@H]1COCCN1c1cc(C(C)(C)C#N)c2c(n1)c(-c1cc[nH]n1)nn2C [Example 1, (R)-2-methyl-2-(1-methyl-5-(3-methylmorpholino)-3-(1H-pyrazol-3-yl)-1H-pyrazolo[4,3-b]pyridin-7-yl)propanenitrile]	–	–	–	–	–	–	–	–	–	–	–	–	–	–	–	–	–	–	–	–	Max Inhibition (%) (LoVo cells): 93%; IC50 (ATR enzyme; 1 nM ATR enzyme, 50 nM P53 protein, 7.435 μM ATP, 2 h, read-out: IC50 for ATR enzyme inhibition): 3 nM; Max Inhibition (%) (ATR enzyme; ATR enzyme): 100%; Vd/F ([2]; read-out: Apparent volume of distribution Vz/F): 2.06 ± 1.22 L/kg; AUC ([2]; read-out: Area under curve AUC): 3200 ± 2750 ng·h/mL; CL/F ([2]; read-out: Clearance CL/F): 17.7 ± 12.4 mL/min/kg; half-life ([2]; read-out: Half-life T1/2 (converted)): 2.62 ± 2.48 h; Cmax ([2]; read-out: Plasma concentration Cmax): 1110 ± 394 ng/mL; MRT ([2]; read-out: Residence time MRT): 3.08 ± 2.31 h

Source: US20240262823A1, “PHARMACEUTICALLY ACCEPTABLE SALT OF PYRAZOLOHETEROARYL DERIVATIVE AND CRYSTAL FORM THEREOF” (JIANGSU HENGRUI PHARMACEUTICALS CO., LTD., priority 2021, published 2024)
